Reference: patent publication US9532977B2, “Controlled release oral dosage forms of poorly soluble drugs and uses thereof” (Celgene Corporation, priority 2010, dated 2017)
Values after ≈ are worked out from the molar mass of the structure shown.

How the values were obtained:
[1] = pharmacokinetic parameters of Compound A in monkeys; conditions: monkey, in vivo, 10 mg/kg PO
Method: (§1) The aqueous room temperature solubilities of Compounds A and Compound B is 6.9 μg/mL and 2.0 μg/mL, respectively. Daily doses of Compound A ranging from 10 mg to 100 mg per day have been administered to approximately 1000 subject in clinical studies to date. […] Therefore a controlled release dosage is clearly needed for Compound A.

[2] = aqueous room temperature solubility; type: physicochemical; conditions: for solubility: water, aqueous, room temperature
Method: as §1

half-life [1] [h] | aqueous solubility of amorphous form compared to crystalline forms ([2]; amorphous form vs crystalline forms) | solubility [2] [µg/mL] | Compound
~2 | greater aqueous solubility | 6.9 (≈ 15 µM) | CCOc1cc([C@@H](CS(C)(=O)=O)N2C(=O)c3cccc(NC(C)=O)c3C2=O)ccc1OC [Compound A, (S)—N-{2-[1-(3-ethoxy-4-methoxy-phenyl)-2-methanesulfonylethyl]-1,3-dioxo-2,3-dihydro-1H-isoindol-4-yl}acetamide]
– | – | 2 (≈ 4.23 µM) | CCOc1cc([C@@H](CS(C)(=O)=O)N2Cc3cccc(NC(=O)C4CC4)c3C2=O)ccc1OC [Compound B, cyclopropanecarboxylic acid {2-[(1S)-1-(3-ethoxy-4-methoxy-phenyl)-2-methanesulfonyl-ethyl]-3-oxo-2,3-dihydro-1H-isoindol-4-yl}-amide]
